Tests used:
[1] = test system: IRF3 signaling pathway in THP1-Lucia™ ISG cells; test: THP1-Lucia ISG reporter assay: induction of IRF3-dependent gene expression (secreted luciferase); assay type: cell-based, human; conditions: PMA-differentiated cells, 18 h after stimulation
Summary of the method: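 PMA-differentiated THP-1 reporter cells (ISRE/ISG54 promoter driving secreted luciferase), plus CRISPR IRF3−/− line, treated with compounds at 5–20 μM (mostly 10 μM). Luciferase measured 18 h later; values are fold increase over untreated background, binned from <2.4 to ≥40.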

[2] = test system: IRF3-deficient THP1-Lucia™ ISG IRF3−/− cells; test: THP1-Lucia ISG IRF3−/− reporter assay (IRF3-deficient control cells); assay type: cell-based, human; conditions: compound 5 to 20 μM, 18 h
Description: The promoter was comprised of five IFN-stimulated response elements (ISRE) fused to an ISG54 minimal promoter which is unresponsive to NF-kB or AP-1 pathways. […] The IRF3-deficient THP1-Lucia™ ISG IRF3−/−reporter cell line was generated by CRISPR technology from the parent THP1-Lucia™ ISG reporter cell line.
THP1-Lucia™ ISG cells and IRF3-deficient THP1-Lucia™ ISG IRF3−/−cells were differentiated with PMA (100 ng/ml) and stimulated with compounds at the indicated concentrations (5 to 20 μM), positive control, or not treated (background). Luciferase secretion was quantified using the QUANTI-Luc luciferase assay system (InvivoGen) 18 h after stimulation. Data are shown as fold increase luciferase activity over background in Table 7 and represent the IRF3-dependent ISG54 promoter activity by the THP1-Lucia™ ISG cells in response to compounds. […] The fold increase of compounds (10 μM, *20 μM, **5 μM) induced IRF3 dependent luciferase activity is indicated as follows: “≠” indicates less than 2.4 fold increase; “+” indicates a 2.4-4.9 fold increase; “++” indicates a 5-9.9 fold increase; “+++” indicates a 10-19 fold increase; “++++” indicates a 20-39 fold increase; “+++++” indicates greater than or equal to 40 fold increase.

[3] = test system: murine CT26 colon carcinoma cells; test: RIG-I dependent CXCL10 secretion by CT26 cells (ELISA); assay type: cell-based; conditions: supernatant 24 h after stimulation
Summary of the method: (§1)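 CT26 murine colon carcinoma cells, parental or CRISPR RIG-I−/−, seeded and grown 24 hr at 37° C, then treated with compounds at 10 μM, or at 5 or 20 μM for some. Secreted CXCL10 measured by ELISA in supernatants 24 h after treatment and reported in pg/mL bands.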

[4] = test system: RIG-I deficient CT26 RIG-I−/− cells; test: CXCL10 secretion by RIG-I deficient CT26 RIG-I−/− cells (ELISA); assay type: cell-based, murine; conditions: compound 5 to 20 μM, 24 h; note: key: −: about 0 pg/mL of CXCL10, or below the level of quantitation
Summary of the method: as §1

In the case of `O=C(Nc1nc2ccc3scnc3c2o1)c1cc2ccccc2cc1OCCCCN1CCOCC1` [Example 59, 3-[4-(morpholin-4-yl)butoxy]-N-{3-oxa-10-thia-5,12-diazatricyclo [7.3.0.0^2,^6]dodeca-1,4,6,8,11-pentaen-4-yl}naphthalene-2-carboxamide], the “fold increase of IRF3-dependent luciferase activity over background, THP1 ISG” value (from here on “fold increase … over background, THP1 ISG”) ([1]; 10 μM compound) is reported as “++ (a 5-9.9 fold increase)”, the “fold increase of luciferase activity, THP1 ISG IRF3−/−” value (from here on “fold increase of luciferase activity”) [2] is reported as “− (less than 0.5 fold above baseline was considered below the level of quantitation)” and the “CXCL10 secretion, CT26” value ([3]; 10 μM compound) is reported as “+++++ (greater than or equal to 1600 pg/ml)”. The “CXCL10 secretion, CT26 RIG-I−/−” value [4] was “−”.

In the case of `Cn1c(C(=O)Nc2cc3ccc4scnc4c3s2)cc2ccccc21` [Example 60, N-{5,12-dithia-3-azatricyclo[7.3.0.0^2,^6]dodeca-1,3,6,8,10-pentaen-11-yl}-1-methyl-1H-indole-2-carboxamide], the “fold increase … over background, THP1 ISG” value ([1]; 20 μM compound (*)) is reported as “+* (a 2.4-4.9 fold increase)”, the “fold increase of luciferase activity” value [2] is reported as “− (less than 0.5 fold above baseline was considered below the level of quantitation)” and the “CXCL10 secretion, CT26” value ([3]; 20 μM compound (*)) is reported as “+* (100-199 pg/mL)”. For the same molecule, the “CXCL10 secretion, CT26 RIG-I−/−” value [4] was “−”.

For “N-[11-(methylsulfanyl)-3,10-dithia-5,12-diazatricyclo[7.3.0.0^2,^6]dodeca-1,4,6,8,11-pentaen-4-yl]-3-[4-(morpholin-4-yl)butoxy]naphthalene-2-carboxamide [Example 37]”, the “fold increase … over background, THP1 ISG” value ([1]; 10 μM compound) was “+++ (a 10-19 fold increase)”, the “fold increase of luciferase activity” value [2] was “− (less than 0.5 fold above baseline was considered below the level of quantitation)” and the “CXCL10 secretion, CT26” value ([3]; 10 μM compound) was “++++ (800 to 1599 pg/mL)”. The “CXCL10 secretion, CT26 RIG-I−/−” value [4] was “−”.

With `O=C(Nc1nc2ccc3ocnc3c2s1)c1cc2ccccc2cc1OCCCCN1CCOCC1` [Example 53, 3-[4-(morpholin-4-yl)butoxy]-N-{10-oxa-3-thia-5,12-diazatricyclo [7.3.0.0^2,^6]dodeca-1,4,6,8,11-pentaen-4-yl}naphthalene-2-carboxamide] the “fold increase … over background, THP1 ISG” value ([1]; 10 μM compound) was “++ (a 5-9.9 fold increase)”, the “fold increase of luciferase activity” value [2] was “− (less than 0.5 fold above baseline was considered below the level of quantitation)” and the “CXCL10 secretion, CT26” value ([3]; 10 μM compound) was “+++++ (greater than or equal to 1600 pg/ml)”. For the same molecule, the “CXCL10 secretion, CT26 RIG-I−/−” value [4] was “−”.

With `O=C(Nc1cc2ccc3scnc3c2s1)c1cc2ccsc2cc1OCCCCN1CCOCC1` [Example 66, N-{5,12-dithia-3-azatricyclo[7.3.0.0^2,^6]dodeca-1,3,6,8,10-pentaen-11-yl}-6-[4-(morpholin-4-yl)butoxy]-1-benzothiophene-5-carboxamide] the “fold increase … over background, THP1 ISG” value ([1]; 10 μM compound) was “+ (a 2.4-4.9 fold increase)”, the “fold increase of luciferase activity” value [2] was “− (less than 0.5 fold above baseline was considered below the level of quantitation)” and the “CXCL10 secretion, CT26” value ([3]; 10 μM compound) was “+++++ (greater than or equal to 1600 pg/ml)”. For the same molecule, the “CXCL10 secretion, CT26 RIG-I−/−” value [4] was “−”.

With `O=C(Nc1nc2ccc3occc3c2s1)c1cc2ccccc2cc1OCCN1CCOCC1` [Example 51, 3-[2-(morpholin-4-yl)ethoxy]-N-{10-oxa-3-thia-5-azatricyclo[7.3.0.0^2,^6]dodeca-1,4,6,8,11-pentaen-4-yl}naphthalene-2-carboxamide] the “fold increase … over background, THP1 ISG” value ([1]; 10 μM compound) was “+++ (a 10-19 fold increase)”, the “fold increase of luciferase activity” value [2] was “− (less than 0.5 fold above baseline was considered below the level of quantitation)” and the “CXCL10 secretion, CT26” value ([3]; 10 μM compound) was “+++ (400-799 pg/mL)”. The “CXCL10 secretion, CT26 RIG-I−/−” value [4] was “−”.

With `O=C(Nc1nc2ccc3occc3c2s1)c1cc2ccccc2cc1OCCCCN1CCOCC1` [Example 50, 3-[4-(morpholin-4-yl)butoxy]-N-{10-oxa-3-thia-5-azatricyclo[7.3.0.0^2,^6]dodeca-1,4,6,8,11-pentaen-4-yl}naphthalene-2-carboxamide] the “fold increase … over background, THP1 ISG” value ([1]; 10 μM compound) was “+++ (a 10-19 fold increase)”, the “fold increase of luciferase activity” value [2] was “− (less than 0.5 fold above baseline was considered below the level of quantitation)” and the “CXCL10 secretion, CT26” value ([3]; 10 μM compound) was “++ (200-399 pg/mL)”. The “CXCL10 secretion, CT26 RIG-I−/−” value [4] was “−”.

For `O=C(Nc1nc2ccc3[nH]cnc3c2s1)c1cc2ccccc2cc1OCCN1CCOCC1` [Example 72, 3-[2-(morpholin-4-yl)ethoxy]-N-{3-thia-5,10,12-triazatricyclo[7.3.0.0^2,^6]dodeca-1,4,6,8,11-pentaen-4-yl}naphthalene-2-carboxamide], the “fold increase … over background, THP1 ISG” value ([1]; 10 μM compound) was “++ (a 5-9.9 fold increase)”, the “fold increase of luciferase activity” value [2] was “− (less than 0.5 fold above baseline was considered below the level of quantitation)” and the “CXCL10 secretion, CT26” value ([3]; 10 μM compound) was “+++ (400-799 pg/mL)”. For the same molecule, the “CXCL10 secretion, CT26 RIG-I−/−” value [4] was “−”.

`O=C(Nc1cc2ccc3scnc3c2s1)c1cc2ccccc2cc1OCCN1CCOCC1` [Example 55, N-{5,12-dithia-3-azatricyclo[7.3.0.0^2,^6]dodeca-1,3,6,8,10-pentaen-11-yl}-3-[2-(morpholin-4-yl)ethoxy]naphthalene-2-carboxamide] was tested, and the “fold increase … over background, THP1 ISG” value ([1]; 10 μM compound) was “+++ (a 10-19 fold increase)”, the “fold increase of luciferase activity” value [2] was “− (less than 0.5 fold above baseline was considered below the level of quantitation)” and the “CXCL10 secretion, CT26” value ([3]; 10 μM compound) was “≠ (less than 100 pg/mL)”. The “CXCL10 secretion, CT26 RIG-I−/−” value [4] was “−”.

For `O=C(Nc1cc2ccc3scnc3c2s1)c1cc2ccccc2cc1OCCCCN1CCOCC1` [Example 54, N-{5,12-dithia-3-azatricyclo[7.3.0.0^2,^6]dodeca-1,3,6,8,10-pentaen-11-yl}-3-[4-(morpholin-4-yl)butoxy]naphthalene-2-carboxamide], the “fold increase … over background, THP1 ISG” value ([1]; 10 μM compound) was “+++ (a 10-19 fold increase)”, the “fold increase of luciferase activity” value [2] was “− (less than 0.5 fold above baseline was considered below the level of quantitation)” and the “CXCL10 secretion, CT26” value ([3]; 10 μM compound) was “++++ (800 to 1599 pg/mL)”. For the same molecule, the “CXCL10 secretion, CT26 RIG-I−/−” value [4] was “−”.

In the case of `O=C(Nc1nc2c(ccc3scnc32)[nH]1)c1ccc2ccccc2c1` [Example 48, N-{5-thia-3,10,12-triazatricyclo[7.3.0.0^2,^6]dodeca-1,3,6,8,11-pentaen-11-yl}naphthalene-2-carboxamide], the “fold increase … over background, THP1 ISG” value ([1]; 20 μM compound (*)) is reported as “++* (a 5-9.9 fold increase)”, the “fold increase of luciferase activity” value [2] is reported as “− (less than 0.5 fold above baseline was considered below the level of quantitation)” and the “CXCL10 secretion, CT26” value ([3]; 20 μM compound (*)) is reported as “++++* (800 to 1599 pg/mL)”. The “CXCL10 secretion, CT26 RIG-I−/−” value [4] was “−”.

For `O=C(Nc1nc2ccc3ocnc3c2s1)c1cc2ccccc2cc1OCCN1CCOCC1` [Example 52, 3-[2-(morpholin-4-yl)ethoxy]-N-{10-oxa-3-thia-5,12-diazatricyclo[7.3.0.0^2,^6]dodeca-1,4,6,8,11-pentaen-4-yl}naphthalene-2-carboxamide], the “fold increase … over background, THP1 ISG” value ([1]; 10 μM compound) was “+ (a 2.4-4.9 fold increase)”, the “fold increase of luciferase activity” value [2] was “− (less than 0.5 fold above baseline was considered below the level of quantitation)” and the “CXCL10 secretion, CT26” value ([3]; 10 μM compound) was “+ (100-199 pg/mL)”. For the same molecule, the “CXCL10 secretion, CT26 RIG-I−/−” value [4] was “−”.

For `O=C(Nc1cc2ccc3scnc3c2s1)c1cc2c(cc1OCCN1CCOCC1)OCO2` [Example 63, N-{5,12-dithia-3-azatricyclo[7.3.0.0^2,^6]dodeca-1,3,6,8,10-pentaen-11-yl}-6-[2-(morpholin-4-yl)ethoxy]-2H-1,3-benzodioxole-5-carboxamide], the “fold increase … over background, THP1 ISG” value ([1]; 10 μM compound) was “≠ (less than 2.4 fold increase)”, the “fold increase of luciferase activity” value [2] was “− (less than 0.5 fold above baseline was considered below the level of quantitation)” and the “CXCL10 secretion, CT26” value ([3]; 10 μM compound) was “≠ (less than 100 pg/mL)”. The “CXCL10 secretion, CT26 RIG-I−/−” value [4] was “−”.

In the case of “N-{5,12-dithia-3-azatricyclo[7.3.0.0^2,^6]dodeca-1,3,6,8,10-pentaen-11-yl}-3-[2-(morpholin-4-yl)ethoxy]-[1,1′-biphenyl]-4-carboxamide [Example 61]”, the “fold increase … over background, THP1 ISG” value ([1]; 10 μM compound) is reported as “++++ (a 20-39 fold increase)”, the “fold increase of luciferase activity” value [2] is reported as “− (less than 0.5 fold above baseline was considered below the level of quantitation)” and the “CXCL10 secretion, CT26” value ([3]; 5 μM compound (**)) is reported as “++** (200-399 pg/mL)”. For the same molecule, the “CXCL10 secretion, CT26 RIG-I−/−” value [4] was “−”.

With “[N-(7-hydroxybenzo[1,2-d:3,4-d′]bis(thiazole)-2-yl)-3-(4-morpholinobutoxy)-2-naphthamide hydrochloride] [Example 44]” the “fold increase … over background, THP1 ISG” value ([1]; 5 μM compound (**)) was “++** (a 5-9.9 fold increase)”, the “fold increase of luciferase activity” value [2] was “− (less than 0.5 fold above baseline was considered below the level of quantitation)” and the “CXCL10 secretion, CT26” value ([3]; 10 μM compound) was “+++ (400-799 pg/mL)”. For the same molecule, the “CXCL10 secretion, CT26 RIG-I−/−” value [4] was “−”.
